Measurements published in patent US9834514B2, “Antibiotic sensitivity-restoring and photosensitive agents” (New Mexico Tech Research Foundation, priority 2015, dated 2017).
In brackets after ≈: the same amount, converted by molar mass.

Experiments:
[1] = system: Klebsiella pneumoniae (CRE, ATCC BAA-1705); assay: Cell killing of CRE with compounds in presence or absence of PMB (CFU/mL); type: cell-based; conditions: for PMB + Comp: PMB @ 0.2 μg/mL + Comp @ 20 µM; for Comp @ 20 µM: compound alone
Protocol: Klebsiella pneumoniae (CRE, ATCC BAA-1705) was grown in TSB overnight at 37° C. and diluted to about 5×10^5 CFU/mL using a McFarland Latex Turbidity standard (0.5). One mL of the cell suspension was transferred to a glass culture test tube. PMB was added to the cell suspension resulting in a final concentration of 200 μg/mL of PMB. The cell suspension was incubated at 37° C. on a rotary shaking incubator at 150 rpm for 4 hours. Compounds 1, 7, 8, 9, 10, and 11 were added to the cell suspension, resulting in a concentration of 20 μM for each of the compounds. The cell suspensions containing the compounds were incubated at 37° C. on a rotary shaking incubator at 150 rpm for 4 hours. Each sample was diluted tenfold to a 10^−5 dilution. Ten 10 microliters of each dilution from each sample was dripped onto a TSA plate and allowed to streak down the plate. The agar plates were incubated at 37° C. for 18-24 hours. Colony counts were performed and CFU/mL values were calculated.
The MICs of PMB and compounds 7-11 were determined against Klebsiella pneumoniae (CRE, ATCC BAA-1705). […] After the incubation with PMB, each of the compounds was added at a concentration of 20 μM, and the samples were incubated for an additional 18 hours. A sample was taken and diluted ten-fold in media. Ten microliters of each dilution was then drip-streaked onto an agar plate and incubated overnight at 37° C. Colony counts were then performed and the concentrations of cells (CFU/mL) were calculated.

P. aeruginosa = assay: MIC against P. aeruginosa; type: cell-based; conditions: Pseudomonas aeruginosa, read-out: MIC
Source text: Only compound 1 was able to decrease the CFU/mL when used in conjunction with white light to treat P. aeruginosa.

MRSA (ATCC BAA-44) = assay: Synergy with oxacillin and norfloxacin and other antibiotics (colony counts); type: cell-based, S. aureus; conditions: for Synergy with Norfloxacin / Synergy with Oxacillin: TABLE 6; for log reduction in the number of surviving cells (CFU/mL), co-treatment with norfloxacin / log reduction in the number of surviving cells (CFU/mL), co-treatment with oxacillin: compared to compound alone, FIGS. 34, 39, 41; for Orders of Magnitude with Norfloxacin / Orders of Magnitude with Oxacillin: increase in ability to kill MRSA versus drug or compound alone
Protocol: The synergy of compounds 1 and 7-11 with oxacillin and norfloxacin was tested against MRSA (ATCC BAA-44). An overnight culture of MRSA was first diluted to about 5×10^5 CFU/mL in TSB. Then, 1 mL of the diluted broth suspension was added to a borosilicate glass culture tube. An appropriate volume of a compound or an antibiotic drug stock was added to the broth suspension and mixed using a vortex mixer. Then an appropriate volume of an antibiotic was added to test synergy with compounds 7-11. The samples were subsequently mixed using a vortex mixer, and the samples were incubated for 18 hours at 37° C. on a rotary shaking incubator. After 18 hours, the test cultures were diluted ten-fold, 10 μL of each dilution was drip-streaked onto a TSA plate, and the samples were incubated for 18 hours at 37° C. Colony counts were then performed and the CFU/mL values were calculated.
TABLE 21 details the MIC values identified in the MRSA assay of compounds 1, 7, 8, 9, 10, 11, various antibiotics, and light.

A. baumannii = assay: Resensitization to antibiotics (log reduction, TABLE 29); type: cell-based; conditions: compound 5 μM
S. aureus (ATCC 29213) [2] = assay: MIC against drug sensitive S. aureus; type: cell-based; conditions: Staphylococcus aureus, ATCC29213; ATCC 29213; read-out: S. aureus MIC
[3] = system: Klebsiella pneumoniae (CRE, ATCC BAA-1705); assay: MIC against CRE; type: cell-based; conditions: Klebsiella pneumoniae, ATCCBAA1705
Protocol: TABLE 27 details the individual MIC values of compounds 1, 7, 8, 9, 10, 11, PMB, PME, and light against CRE.
The MICs of PME and compounds 8-11 were determined against Klebsiella pneumoniae (CRE, ATCC BAA-1705). […] After the incubation with PME, the compounds were added at a concentration of 20 μM, and the samples were further incubated. At specific time points, the samples were taken and diluted ten-fold in media. Ten microliters of each dilution was then drip-streaked onto an agar plate and incubated overnight at 37° C. Colony counts were then performed and the CFU/mL were calculated.

MRSA = assay: Resensitization to antibiotics (log reduction, TABLE 29); type: cell-based, S. aureus
VRE [4] = assay: as above; type: cell-based, Enterococcus faecalis; conditions: compound 1 μM; Light (2 min)
HeLa cells = assay: Toxicity (IC50) on HeLa cells; type: cell-based, human; conditions: for IC50: Homo sapiens, cancerous cervical epithelium HeLa cells
Protocol: (§1) The toxicities of the compounds of the invention were determined for human cancerous cervical epithelium HeLa and normal lung fibroblast WI38 cells. The toxicities of EPIs INF-55 and INF-55Cl were quantified as controls. […] TABLE 2 compares the toxicity of compounds 7-11 on HeLa cells and normal WI38 cells.

WI38 cells = assay: Toxicity (IC50) on WI38 cells; type: cell-based; conditions: Homo sapiens, WI-38; normal lung fibroblast WI38 cells
Protocol: as §1

S. aureus (ATCC 29213) [5] = assay: microbe, parasite or virus in culture; type: cell-based; conditions: for MIC: Staphylococcus aureus, ATCC29213, read-out: Final MIC Apr. 16, 2015
Protocol: Each mixture was incubated at 37° C. on a rotary shaking incubator for about 16 hours. MTT was then added to assess the viability of the cells (at 10% well volume). […] The cells were then streaked onto a TSA plate and incubated overnight at 37° C. These steps were repeated to reach a total of 30 exposures.

VRE [6] = assay: Resensitization to antibiotics (log reduction, TABLE 29); type: cell-based, Enterococcus faecalis
Protocol: In a 96-well microtiter plate, two-fold dilutions were made of each drug (starting with 100 μM) in 100 μL of a cell suspension in TSB. The resulting samples were incubated overnight at 37° C. on a rotary shaking incubator at 100 rpm. The samples were then visually inspected for turbidity. A 20% well volume of MTT reagent (5 mg/mL) was subsequently added, and the samples were incubated for about 20 minutes.

[7] = (1/40) MIC compound + (1/30) MIC Tetracycline
[8] = (1/40) MIC compound + (1/31) MIC Dicloxicillin
[9] = (1/40) MIC compound + (1/50) MIC Dicloxicillin
[10] = (1/40) MIC compound + (1/50) MIC Norfloxacin
[11] = (1/40) MIC compound + (1/50) MIC Tobramycin
[12] = (1/40) MIC compound + (¼) MIC Oxacillin
[13] = (1/40) MIC compound + (⅙) MIC Vancomycin
[14] = (½) MIC compound + (¼) MIC Norfloxacin
[15] = (½) MIC compound + (⅓) MIC Oxacillin
[16] = (⅛) MIC compound + (1/7) MIC Norfloxacin
[17] = (⅛) MIC compound + (¼) MIC Oxacillin

## Clc1ccc(/C=C/c2[nH]c3ccccc3c2/C=C/c2ccc(Cl)cc2)cc1 [Compound 1]
[1]
  PMB + Comp: 8.2 × 10^3 CFU/mL
  Comp @ 20 µM: 6.4 × 10^8 CFU/mL
P. aeruginosa
  MIC: > 100 µM
MRSA (ATCC BAA-44); [7]
  % Kill: 99.99%
  Surviving MRSA: 1.00 × 10^−5
MRSA (ATCC BAA-44); [8]
  % Kill: 99.99%
  Surviving MRSA: 1.00 × 10^−4
MRSA (ATCC BAA-44); [9]
  % Kill: 99.99%
  Surviving MRSA: 1.00 × 10^−8
MRSA (ATCC BAA-44); [10]
  % Kill: 99.99%
  Surviving MRSA: 1.00 × 10^−9
MRSA (ATCC BAA-44); [11]
  % Kill: 99.99%
  Surviving MRSA: 1.00 × 10^−9
MRSA (ATCC BAA-44); [12]
  % Kill: 99.99%
  Surviving MRSA: 1.00 × 10^−7
MRSA (ATCC BAA-44); [13]
  % Kill: 99.99%
  Surviving MRSA: 1.00 × 10^−9
MRSA (ATCC BAA-44); (1/40) MIC compound + Light
  % Kill: 99.99%
  Surviving MRSA: 1.00 × 10^−8
MRSA (ATCC BAA-44)
  Synergy with Norfloxacin: 5-log reduction
  Synergy with Oxacillin: 5-log reduction
  log reduction in the number of surviving cells (CFU/mL), co-treatment with norfloxacin: ~5 log
  log reduction in the number of surviving cells (CFU/mL), co-treatment with oxacillin: ~5 log
  Orders of Magnitude with Norfloxacin: 9
  Orders of Magnitude with Oxacillin: >7
A. baumannii; PMB (0.5 μg/mL)
  Log Reduction: 8
A. baumannii; PME (0.2 μg/mL)
  Log Reduction: 8
S. aureus (ATCC 29213) [2]
  MIC: 100 µM (≈ 39 µg/mL)
[3]
  MIC: > 100 µM
MRSA; compound 1 μM, MRSA ATCC BAA-44, Light (2 min)
  Log Reduction: 8
MRSA; compound 10 μM, Dicloxacillin (1 μg/mL)
  Log Reduction: 8
MRSA; compound 10 μM, Doxycycline (0.1 μg/mL)
  Log Reduction: 4
MRSA; compound 10 μM, Vancomycin (0.5 μg/mL)
  Log Reduction: 9
VRE [4]
  Log Reduction: 8-9
HeLa cells
  IC50: 68.9 ± 4.8 µM

## Clc1ccc(/N=N/c2c[nH]c3ccccc23)cc1 [Compound 9]
[1]
  PMB + Comp: None Detected
  Comp @ 20 µM: 6.4 × 10^8 CFU/mL
P. aeruginosa
  MIC: > 100 µM
MRSA (ATCC BAA-44); [14]
  % Kill: 99%
  Surviving MRSA: 1.00 × 10^−2
MRSA (ATCC BAA-44); [15]
  % Kill: 99%
  Surviving MRSA: 1.00 × 10^−2
MRSA (ATCC BAA-44); FIGS. 35-38
  MICs greater than cells treated with compound alone, with norfloxacin: two-fold
  MICs greater than cells treated with compound alone, with oxacillin: two-fold
MRSA (ATCC BAA-44)
  Orders of Magnitude with Norfloxacin: >2
  Orders of Magnitude with Oxacillin: >2
A. baumannii; PME (0.2 μg/mL)
  Log Reduction: 8
S. aureus (ATCC 29213) [2]
  MIC: 16 µM (≈ 4.09 µg/mL)
WI38 cells
  IC50: 61.9 µM
[3]
  MIC: > 100 µM
MRSA; compound 8 μM, Norfloxacin (25 μg/mL)
  Log Reduction: 2-3
S. aureus (ATCC 29213) [5]
  Resistance Evolved: No
  MIC: 8 µM (≈ 2.05 µg/mL)
VRE [6]; compound 75 μM, Norfloxacin ([…])
  Log Reduction: 4
VRE [6]; compound 75 μM, Tetracycline (1.5 μg/mL)
  Log Reduction: 3-4
HeLa cells
  IC50: 34.4 µM
HeLa cells; comparison of TABLE 2 values
  toxicity to HeLa versus normal WI38 cells: killed cancerous HeLa cells at concentrations that were not toxic to normal WI38 cells

## Clc1ccc(Oc2c(-c3ccc(Cl)cc3)[nH]c3ccc(Cl)cc23)cc1 [Compound 11]
[1]
  PMB + Comp: None Detected
  Comp @ 20 µM: 7.8 × 10^8 CFU/mL
P. aeruginosa
  MIC: > 100 µM
MRSA (ATCC BAA-44); [16]
  % Kill: 99.99%
  Surviving MRSA: 1.00 × 10^−5
MRSA (ATCC BAA-44); [17]
  % Kill: 99.99%
  Surviving MRSA: 1.00 × 10^−5
MRSA (ATCC BAA-44)
  Synergy with Norfloxacin: 8-log reduction
  Synergy with Oxacillin: 5-log reduction
  log reduction in the number of surviving cells (CFU/mL), co-treatment with norfloxacin: ~8 log
  log reduction in the number of surviving cells (CFU/mL), co-treatment with oxacillin: ~5 log
  Orders of Magnitude with Norfloxacin: 5
  Orders of Magnitude with Oxacillin: 5
MRSA (ATCC BAA-44); compound 11 at 1 μM, FIG. 40
  killing of MRSA in conjunction with oxacillin: more effective at killing MRSA when used in conjunction with oxacillin
A. baumannii; PME (0.2 μg/mL)
  Log Reduction: 8
S. aureus (ATCC 29213) [2]
  MIC: 32 to 64 µM (≈ 12.4 to 24.9 µg/mL)
WI38 cells
  IC50: 9.62 µM
[3]
  MIC: > 100 µM
MRSA; compound 0.5 μM, Norfloxacin (20 μg/mL)
  Log Reduction: 8
MRSA; compound 0.5 μM, Oxacillin (100 μg/mL)
  Log Reduction: 5
S. aureus (ATCC 29213) [5]
  Resistance Evolved: Yes
  MIC: > 256 µM
VRE [6]; compound 0.5 μM, Norfloxacin ([…])
  Log Reduction: 3-4
VRE [6]; compound 0.5 μM, Tetracycline (1.5 μg/mL)
  Log Reduction: 3
VRE [6]; compound 0.5 μM, Vancomycin (3.5 μg/mL)
  Log Reduction: 3
HeLa cells
  IC50: 25.9 µM
